Where two headings read alike, the source gives them in different places. Peptide text beside a SMILES is read from it.

This is an account of results in patent US20020091086A1, “Peptides that block viral infectivity and methods of use thereof” (priority 1999, published 2002).

For experiment [1], the system named is HIV-1. The conditions noted are these: 100 μM, HUT78 cells; for p24 / reduction (%): Experiment 6, Day 7 HIV-1; for HIV-1 infection, result in words: summary of Experiment 6. Here is the method:
In experiment 6 (Table 7 and FIG. 1), approximately 200,000 HUT78 cells were infected with HIV-1 at 25 TCID50 to test the inhibitory effect of GPG-NH2, RQG-NH2, KQG-NH2, ALG-NH2, GVG-NH2, VGG-NH2, ASG-NH2, SLG-NH2, and SPT-NH2. The HUT cells were resuspended in lml of RPMI 1640 medium supplemented with 10% (v/v) heat-inactivated fetal bovine serum (FBS, GIBCO), penicillin (100 u/ml), streptomycin (100 u/ml) and Polybrene (Sigma, 2 μg/ml) with or without the presence of the different small peptides (100 μM) mentioned above. Thereafter, the HIV-1 virus was added at 25 TCID50 in a volume of 20 μl. Cells were incubated with the virus at 37° C. for one hour and, subsequently, the cells were pelleted at 170×g for seven minutes. The cells were then washed three times in RPMI medium without peptides at room temperature by cell sedimentation at 170×g for seven minutes, as above. After the final wash, the cells were resuspended in RPMI culture medium containing the peptides in 24-well plate (Costar corporation) and were kept at 37° C. in 5% CO2 with humidity. Culture supernatants were collected when medium was changed at day 4, 7, and 11 post infection and viral p24 production was monitored by using an HIV-1 p24 ELISA kit (Abbott Laboratories, North Chicago, USA).

Experiment [2] relates to HIV-1 isolate p7141 (high PI). The experiment is described as follows: resistant HIV-1 isolates in PBMC, p24 ELISA. The format is cell-based. The following applies: Rito 0.1 μM, 14 days post infection. For orientation: An ELISA detects its analyte on a solid surface through an enzyme-linked reagent.
The subject of experiment [3] is HIV-1 isolate p7300 (low PI). The experiment is described as follows: resistant HIV-1 isolates in PBMC, p24 ELISA. The format is cell-based. The following applies: Rito 0.1 μM, 14 days post infection.
The subject of a further experiment is HIV-1 SF-2 virus. The experiment is described as follows: electron microscopy of HIV-1 particles from infected HUT78 cells. The format is cell-based. The conditions noted are these: 0.5μM; cells fixed day 14. Here is the method:
In this set of experiments, HUT78 cells were infected with HIV-1 SF-2 virus at 300TCID50 for 1 hr at 37° C. Subsequently, the infected cells were washed and pelleted 3 times, as described in Example 2. Thereafter, the cells were resuspended in RPMI culture medium supplemented with 10% FBS, antibiotics (100 u/ml) and polybrene (3.2 μg/ml). GPG-NH2 was then added into the cell cultures 3, 5 or 7 days post infection at concentration of 1 μM or 10 μM. A control sample was administered 0.5μM Ritonavir (a protease inhibitor).
The cells were cultured until day 14, at which point, the cells were fixed in 2.5% glutaraldehyde by conventional means. The fixed cells were then postfixed in 1% OSO4 and were dehydrated, embedded with epoxy resins, and the blocks were allowed to polymerize. Epon sections of virus infected cells were made approximately 60-80 nm thin in order to accommodate the width of the nucleocapsid. The sections were mounted to grids stained with 1.0% uranyl acetate and were analyzed in a Zeiss CEM 902 microscope at an accelerating voltage of 80 kV. The microscope was equipped with a spectrometer to improve image quality and a liquid nitrogen cooling trap was used to reduce beam damage. The grids having sections of control and GPG-NH2 incubated cells were examined in several blind studies.

The test system of another experiment is HIV-2. The experiment is described as follows: HIV-2 infectivity assay in H9 cells, RT activity in supernatant. In kind it is cell-based.
The subject of experiment [4] is HIV-1. The following applies: H9 cells; for Day 7 RT HIV-1 / Day 10 RT HIV-1: 100 μM. An excerpt:
(§1) In this example, the methods that were used to analyze the ability of various tripeptides to inhibit HIV-1, HIV-2, and SIV replication are disclosed. In Experiments 1 and 2, approximately 200,000 H9 cells were infected with HIV-1, HIV-2 or SIV at 25 TCID50 to test the inhibitory effect of the following synthesized tripeptides LKA-NH2, ILK-NH2, GPQ-NH2, GHK-NH2, GKG-NH2, ACQ-NH2, CQG-NH2, ARV-NH2, KAR-NH2, HKA-NH2, GAT-NH2, KAL-NH2, and GPG-NH2. Accordingly, the H9 cells were resuspended with or without the different peptides (approximately 100 μM) in 1 ml of RPMI 1640 medium supplemented with 10% (v/v) heat-inactivated fetal bovine serum (FBS), penicillin (100 u/ml), and streptomycin (100 u/ml), all available through GIBCO, and Polybrene (2 μg/ml), available through Sigma. Thereafter, viruses were added at 25 TCID50 in a volume of 20-30μl. Cells were incubated with virus at 37° C. for 1 hr then pelleted at 170×g for 7 minutes. The cells were then washed three times in RPMI medium without peptides at room temperature and pelleted at 170×g for 7 minutes, as above. After the final wash, the cells were resuspended in RPMI culture medium containing the peptides in a 24-well plate (Costar corporation) and were kept at 37° C. in 5% CO2 with humidity.
(§2) Culture supernatants were collected and analyzed when the medium was changed at 4, 7, 10, and 14 days post infection. To monitor the replication of virus, reverse transcriptase (RT) activity in the supernatants was assayed using a commercially available Lenti-RT activity kit. (Cavidi Tech, Uppsala, Sweden). The amount of RT was determined with the aid of a regression line of standards. The results are presented as absorbance values (OD) and higher absorbance indicates a higher protein concentration and greater viral infection. Syncytium formation was also monitored by microscopic examination.
In Experiment 3, (Table 4), approximately 200,000 H9 cells were infected with HIV-1, HIV-2 or SIV at 25 TCID50 to test the inhibitory effect of different concentrations of peptides GPG-NH2, GKG-NH2 and CQG-NH2 and combinations of these peptides (the indicated concentration corresponds to the concentration of each tripeptide). As above, H9 cells were resuspended with or without the different peptides at varying concentrations in 1 ml of RPMI 1640 medium supplemented with 10% (v/v) heat-inactivated fetal bovine serum (FBS), penicillin (100 u/ml), and streptomycin (100 u/ml), and Polybrene (2 μg/ml). Thereafter, viruses were added at 25 TCID50 in a volume of 20-30 μl. Cells were incubated with the indicated virus at 37° C. for 1 hr then pelleted at 170×g for 7 minutes. The cells were then washed three times in RPMI medium without peptides at room temperature and pelleted at 170×g for 7 minutes, as above. After the final wash, the cells were resuspended in RPMI culture medium containing the peptides in a 24-well plate (Costar corporation) and kept at 37° C. in 5% CO2 with humidity.
Culture supernatants were collected when the medium was changed at 4, 7, and 11 days post infection. As above, the replication of each virus was monitored by detecting reverse transcriptase (RT) activity in the supernatants using the Lenti-RT activity kit. (Cavidi Tech). The amount of RT was determined with the aid of a regression line of standards. The results are presented as absorbance values (OD) and higher absorbance indicates a higher protein concentration and greater viral infection.
In Experiment 4, (Table 5) approximately 200,000 H9 cells were infected with HIV-1 at 25 TCID50 to test the inhibitory effect of different concentrations of peptides GPG-NH2, GKG-NH2 and CQG-NH2 and combinations of these peptides (the indicated concentration corresponds to the total concentration of tripeptide).

The test system of a further experiment is SIV. The experiment is described as follows: SIV infectivity assay in H9 cells, RT activity in supernatant. In kind it is cell-based.
Experiment [5] concerns HIV-1. The conditions noted are these: H9 cells; for HIV-1 Syncytia: 100 μM.
Text: as §1, §2

Regarding `CC(C)[C@H](N)C(=O)NCC(=O)NCC(N)=O` [VGG-NH2, valyl-glycyl-glycine amide] (H-Val-Gly-Gly-NH2), in the experiment with HIV-1 [1], the “p24” value is 10000 pg/mL and the “reduction (%)” value came out at 50%.
`C[C@@H](O)[C@H](NC(=O)[C@@H]1CCCN1C(=O)[C@@H](N)CO)C(N)=O` [SPT-NH2, seryl-prolyl-threonine amide] (H-Ser-Pro-Thr-NH2): in the experiment with HIV-1 [1], the “p24” value was 15000 pg/mL and the “reduction (%)” value was 25%.
As to `CC(C)[C@H](NC(=O)CN)C(=O)NCC(N)=O` [GVG-NH2, glycyl-valyl-glycine amide] (H-Gly-Val-Gly-NH2), in the experiment on HIV-1 [1], the “p24” value was found to be 15000 pg/mL and the “reduction (%)” value is on record as 25%.
Consider `CC(C)C[C@H](NC(=O)[C@H](C)N)C(=O)NCC(N)=O` [ALG-NH2, alanyl-leucyl-glycine amide] (H-Ala-Leu-Gly-NH2), for which, in the experiment on HIV-1 [1], the “p24” value came out at 42 pg/mL; the “reduction (%)” value is listed as around 100%; the “HIV-1 infection, result in words” value is “inhibited and/or prevented HIV-1 infection”.
`CC(C)c1nc(CN(C)C(=O)N[C@H](C(=O)N[C@@H](Cc2ccccc2)C[C@H](O)[C@H](Cc2ccccc2)NC(=O)OCc2cncs2)C(C)C)cs1` [Ritonavir, reference compound]: in experiment [2], the “% reduction” value was “(14%)” and the “HIV-1 p24” value came to 98000 pg/mL. In experiment [3], the “% reduction” value was “(56%)” and the “HIV-1 p24” value was 64000 pg/mL. In addition, the “viral particle structure, electron microscopy” value in the experiment with HIV-1 SF-2 virus is “malformed structures that did not have a discemable nucleocapsid”.
Regarding `NCCCC[C@H](N)C(=O)N[C@@H](CCC(N)=O)C(=O)NCC(N)=O` [KQG-NH2, lysyl-glutaminyl-glycine amide] (H-Lys-Gln-Gly-NH2), in the experiment on HIV-1 [1], the “p24” value worked out at 154 pg/mL; the “reduction (%)” value was around 100%; the “HIV-1 infection, result in words” value was “inhibited and/or prevented HIV-1 infection”. Moreover, the “reduction (%)” value in the experiment with HIV-1 [1] (listed as KQG—NH2) was determined as 99%.
On to `N=C(N)NCCC[C@H](N)C(=O)N[C@@H](CCC(N)=O)C(=O)NCC(N)=O` [RQG-NH2, arginyl-glutaminyl-glycine amide] (H-Arg-Gln-Gly-NH2), for which, in the experiment on HIV-1 [1], the “p24” value was 113 pg/mL; the “reduction (%)” value was around 100%; the “HIV-1 infection, result in words” value is reported as “inhibited and/or prevented HIV-1 infection”. Also, in the experiment with HIV-1 [1] (listed as RQG—NH2), the “reduction (%)” value was determined as 99%.
With `C[C@H](N)C(=O)N[C@@H](CO)C(=O)NCC(N)=O` [ASG-NH2, alanyl-seryl-glycine amide] (H-Ala-Ser-Gly-NH2), in the experiment on HIV-1 [1], the “p24” value turned out to be 15000 pg/mL and the “reduction (%)” value was determined as 25%.
Regarding `CC(C)C[C@H](NC(=O)[C@@H](N)CO)C(=O)NCC(N)=O` [SLG-NH2, seryl-leucyl-glycine amide] (H-Ser-Leu-Gly-NH2), in the experiment with HIV-1 [1], the “p24” value amounted to 114 pg/mL; the “reduction (%)” value is reported as around 100%; the “HIV-1 infection, result in words” value is “inhibited and/or prevented HIV-1 infection”. Moreover, in the experiment on HIV-1 [1] (listed as SLG—NH2), the “reduction (%)” value was 99%.
Regarding Gly-His-Lys [GHK-NH2], the “Day 7 RT HIV-2” value with HIV-2 (Experiment 1, 100 μM) is 3.522 OD; with HIV-2 (Experiment 2, 100 μM), 1.936 OD. Moreover, the “Day 10 RT HIV-2” value with HIV-2 (Experiment 1, 100 μM) is listed as 2.931 OD; in the experiment with HIV-2 (Experiment 2, 100 μM), 2.418 OD. Further, the “Day 7 RT HIV-1” value in the experiment with HIV-1 [4] (Experiment 1) is 0.289 OD; in the experiment on HIV-1 [4] (Experiment 2) it was 0.829 OD. Moreover, the entries for the “Day 10 RT HIV-1” value with HIV-1 [4] (Experiment 1) and in the experiment on HIV-1 [4] (Experiment 2) were 2.151 OD and 3.013 OD, respectively. In addition, the “HIV-1 infection, result in words” value with HIV-1 [4] (summary of Experiments 1-5) is “failed to prevent infection”. Moreover, the “Day 7 RT SIV” value is listed as 0.097 OD in the experiment on SIV (Experiment 1, 100 μM) and 0.396 OD with SIV (Experiment 2, 100 μM). In addition, the “Day 10 RT SIV” value came to 2.384 OD in the experiment with SIV (Experiment 1, 100 μM) and 2.394 OD in the experiment with SIV (Experiment 2, 100 μM). Further, the “HIV-1 Syncytia” value in the experiment on HIV-1 [5] (Experiment 1) and in the experiment with HIV-1 [5] (Experiment 2) was “pos” each time. Moreover, the “HIV-1 syncytia formation, result in words” value in the experiment on HIV-1 [5] (summary of Experiments 1-2) is “failed to prevent infection and HIV-1 syncytia formation”.
